According to patent US20150216865A1, “METHODS OF TREATING A BRUTON'S TYROSINE KINASE DISEASE OR DISORDER” (Celgene Avilomics Research, Inc., priority 2012, published 2015):
Entries after “also recorded” stand apart in the source; their conditions may differ. Marks after values point to notes of the source that are not given here.

What was measured:
Btk [1] = biological target: T1, Btk (Homo sapiens, UniProt Q06187); test: Btk biochemical kinase assay; conditions: read-out: IC50apparent, Btk kinase activity
T1 sequence (Q06187 whole entry): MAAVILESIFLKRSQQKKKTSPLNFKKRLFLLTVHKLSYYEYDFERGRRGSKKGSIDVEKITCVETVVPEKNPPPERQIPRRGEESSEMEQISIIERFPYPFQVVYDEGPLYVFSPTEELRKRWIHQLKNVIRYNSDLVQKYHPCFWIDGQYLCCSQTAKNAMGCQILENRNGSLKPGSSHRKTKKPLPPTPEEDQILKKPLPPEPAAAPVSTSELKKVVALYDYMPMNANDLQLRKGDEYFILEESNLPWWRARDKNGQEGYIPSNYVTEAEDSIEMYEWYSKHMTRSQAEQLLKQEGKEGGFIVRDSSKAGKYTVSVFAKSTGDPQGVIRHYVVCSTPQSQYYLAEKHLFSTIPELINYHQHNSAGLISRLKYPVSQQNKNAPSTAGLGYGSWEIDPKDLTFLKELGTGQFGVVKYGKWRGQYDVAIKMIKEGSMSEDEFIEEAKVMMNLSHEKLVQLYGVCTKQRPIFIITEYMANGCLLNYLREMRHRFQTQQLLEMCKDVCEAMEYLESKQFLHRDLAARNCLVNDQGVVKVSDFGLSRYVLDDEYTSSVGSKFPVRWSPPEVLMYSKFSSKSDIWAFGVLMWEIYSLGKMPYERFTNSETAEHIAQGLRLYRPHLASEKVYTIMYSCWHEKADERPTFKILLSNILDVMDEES

EGFR = EGFR (Homo sapiens, UniProt P00533); test: Biochemical kinase assay, EGFR (probe selectivity); conditions: read-out: IC50app EGFR
Sequence of EGFR (P00533 25-1210): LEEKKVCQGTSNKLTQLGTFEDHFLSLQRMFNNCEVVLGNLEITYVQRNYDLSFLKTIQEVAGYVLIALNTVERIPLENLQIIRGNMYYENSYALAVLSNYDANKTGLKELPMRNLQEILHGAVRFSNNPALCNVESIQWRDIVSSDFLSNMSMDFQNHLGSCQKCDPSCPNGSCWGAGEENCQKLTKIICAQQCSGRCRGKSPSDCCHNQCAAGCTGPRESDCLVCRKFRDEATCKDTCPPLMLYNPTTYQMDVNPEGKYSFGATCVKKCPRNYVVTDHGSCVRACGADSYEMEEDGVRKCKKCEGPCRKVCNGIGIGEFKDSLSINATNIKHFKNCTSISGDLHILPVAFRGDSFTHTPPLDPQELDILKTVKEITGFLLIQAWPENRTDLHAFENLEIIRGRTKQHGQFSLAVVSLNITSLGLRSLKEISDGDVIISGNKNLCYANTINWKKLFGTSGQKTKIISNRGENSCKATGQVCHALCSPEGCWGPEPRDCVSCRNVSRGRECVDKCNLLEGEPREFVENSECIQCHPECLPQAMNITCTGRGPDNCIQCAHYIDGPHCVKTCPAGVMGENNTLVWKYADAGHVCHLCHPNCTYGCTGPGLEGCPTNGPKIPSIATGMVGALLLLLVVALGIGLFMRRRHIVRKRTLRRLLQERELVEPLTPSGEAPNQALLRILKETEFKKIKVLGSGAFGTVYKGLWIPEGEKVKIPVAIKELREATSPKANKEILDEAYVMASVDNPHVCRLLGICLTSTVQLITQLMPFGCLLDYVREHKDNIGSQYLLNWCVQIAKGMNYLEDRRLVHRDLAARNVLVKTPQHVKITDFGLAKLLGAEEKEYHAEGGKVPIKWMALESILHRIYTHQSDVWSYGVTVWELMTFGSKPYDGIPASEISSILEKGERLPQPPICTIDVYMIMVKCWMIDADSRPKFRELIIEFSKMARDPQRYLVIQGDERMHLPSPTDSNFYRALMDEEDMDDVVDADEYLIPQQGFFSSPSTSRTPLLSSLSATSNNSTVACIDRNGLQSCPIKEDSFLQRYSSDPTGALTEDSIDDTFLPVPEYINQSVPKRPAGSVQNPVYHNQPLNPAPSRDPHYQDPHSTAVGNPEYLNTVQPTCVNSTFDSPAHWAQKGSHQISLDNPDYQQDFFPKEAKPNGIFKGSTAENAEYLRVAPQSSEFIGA

Syk = Syk (Homo sapiens, UniProt P43405); test: Biochemical kinase assay, Syk (probe selectivity); conditions: read-out: IC50app Syk
Lyn = Lyn (Homo sapiens, UniProt P07948); test: Biochemical kinase assay, Lyn (probe selectivity); conditions: read-out: IC50app Lyn
Sequence of Lyn (P07948 whole entry): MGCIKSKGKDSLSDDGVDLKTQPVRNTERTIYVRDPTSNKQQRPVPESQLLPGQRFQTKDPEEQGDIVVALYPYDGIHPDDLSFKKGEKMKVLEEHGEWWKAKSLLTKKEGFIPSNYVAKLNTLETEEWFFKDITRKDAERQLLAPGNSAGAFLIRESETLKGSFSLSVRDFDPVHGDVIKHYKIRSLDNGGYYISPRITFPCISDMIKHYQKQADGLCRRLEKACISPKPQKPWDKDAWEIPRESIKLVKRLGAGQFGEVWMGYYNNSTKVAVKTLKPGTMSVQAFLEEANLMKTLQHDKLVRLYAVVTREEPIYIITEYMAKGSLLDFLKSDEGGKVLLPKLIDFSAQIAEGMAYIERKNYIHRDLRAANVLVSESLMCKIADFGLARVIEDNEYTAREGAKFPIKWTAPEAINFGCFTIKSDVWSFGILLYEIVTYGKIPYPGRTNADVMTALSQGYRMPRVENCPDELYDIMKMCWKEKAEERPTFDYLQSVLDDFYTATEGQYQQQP

Btk [2] = biological target: T1, Btk; test: Immunoblot of Btk signaling in α-IgM stimulated Ramos cells; assay type: cell-based
Description: (§1) Following incubation, cells were centrifuged and resuspended in 100 μL of serum-free RPMI and BCR was stimulated with addition of 5 μg/mL α-human IgM. […] Membranes were scanned on a LiCor Odyssey Scanner using infrared fluorescence detection.

Btk [3] = biological target: T1, Btk; test: Btk target site occupancy ELISA, Ramos cells; assay type: cell-based; conditions: one hour, read-out: EC90 of Btk occupancy (concentration required for 90% occupancy)
Description: (§2) Btk Target Site Occupancy ELISA: An ELISA method for the detection of free uninhibited Btk in mouse, rat, dog, monkey, and human lysates was developed at Celgene Avilomics Research and a validation of this method in human B cell lysate was performed by a CLIA Certified laboratory (Cambridge Biomedical Laboratories, Boston, Mass.) The parameters that were assessed included: accuracy, linearity, dilution, precision (intra and inter-assay), stability, reference range, freeze-thaw cycles, reportable range, specificity, sensitivity, and carryover. […] Standards and samples were transferred to a streptavidin-coated 96-well ELISA plate and mixed while shaking for 1 h at room temperature. […] After wash, goat α-mouse-HRP (1:5000 dilution in PBS+0.05% Tween-20+0.5% BSA) was added and incubated for 1 h at room temperature. The ELISA was developed with addition of tetramethyl benzidine (TMB) followed by Stop Solution and read at OD 450 nm.

Btk [4] = biological target: T1, Btk; test: Immunoblot of Btk kinase activity in human primary naïve B cells; assay type: cell-based; conditions: 10 nM
Description: as §1

Btk [5] = biological target: T1, Btk; test: Btk target site occupancy ELISA, human primary naïve B cells; assay type: cell-based; conditions: 10 nM
Description: as §2

naïve human B-cells = test: B lymphocyte proliferation (3H-thymidine incorporation); assay type: cell-based; conditions: B-cell; α-human IgM stimulated
Description: B Lymphocyte Proliferation (^3H-Thymidine Incorporation): A suspension of resting purified naïve human B-cells isolated by negative selection (MACS reagent 130-091-150) in RPMI was prepared at 0.4-0.5×10^6 cells per mL. […] Experiments were performed in triplicate.

Btk [6] = biological target: T2, Btk (Mus musculus, UniProt P35991); test: Btk protein resynthesis in mice (spleen covalent probe ELISA); assay type: in vivo
T2 construct: from tissue; host or cells: mouse spleen
T2 sequence (P35991 whole entry): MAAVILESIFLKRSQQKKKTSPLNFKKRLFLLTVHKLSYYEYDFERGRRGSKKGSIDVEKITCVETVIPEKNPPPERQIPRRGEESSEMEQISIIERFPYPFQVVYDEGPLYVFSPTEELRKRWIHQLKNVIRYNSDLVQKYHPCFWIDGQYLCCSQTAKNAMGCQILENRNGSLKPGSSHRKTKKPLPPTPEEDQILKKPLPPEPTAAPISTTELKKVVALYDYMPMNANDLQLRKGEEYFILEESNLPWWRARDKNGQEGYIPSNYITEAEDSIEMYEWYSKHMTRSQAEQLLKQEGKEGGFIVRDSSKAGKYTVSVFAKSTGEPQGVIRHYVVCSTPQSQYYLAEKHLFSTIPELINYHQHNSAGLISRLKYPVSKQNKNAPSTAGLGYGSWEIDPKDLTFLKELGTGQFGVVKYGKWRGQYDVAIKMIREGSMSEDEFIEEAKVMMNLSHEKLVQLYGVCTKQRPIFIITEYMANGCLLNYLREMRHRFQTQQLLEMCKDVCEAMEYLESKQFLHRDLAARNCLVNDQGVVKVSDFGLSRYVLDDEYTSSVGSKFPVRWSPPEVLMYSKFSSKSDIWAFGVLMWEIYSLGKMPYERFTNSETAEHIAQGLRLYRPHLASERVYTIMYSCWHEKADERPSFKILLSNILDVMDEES
Description: Spleen Homogenization: Spleens were harvested from mice, frozen immediately in liquid nitrogen and stored at −80° C. To generate spleen lysates, each spleen was sliced in half and lysed using a Precellys 24 Bead Homogenizer in 500 μL of BioRad Bio-Plex Lysis Buffer plus protease inhibitors. Supernatant was transferred to a fresh microfuge tube and stored frozen at −80° C. until analysis.
as §2
Btk Protein Resynthesis in Mice. […] Spleens were homogenized and assayed on the covalent probe ELISA for Btk target site occupancy and compound concentration in serum was measured.

[7] = Plasma level of compound in mice of the Btk resynthesis experiment; assay type: in vivo, mouse; conditions: single oral 50 mg/kg, n=6
Description: Btk Protein Resynthesis in Mice. […] At 4, 8, 16, 24, 48, 72, and 96 hours after treatment, spleens and serum were harvested (n=6 mice/timepoint). Spleens were homogenized and assayed on the covalent probe ELISA for Btk target site occupancy and compound concentration in serum was measured.

[8] = tested on: collagen-induced arthritis Dba1 mouse model; test: Established collagen induced arthritis model (clinical score, histopathology, body weight); assay type: in vivo
Description: Established Collagen Induced Arthritis Model: Experiments were carried out at Bolder Biopath, Boulder, Colo. All experiments were carried out in compliance with regulations of the Institutional Animal Care and Use Committee and were conducted in accordance with principles and procedures dictated by the highest standards of humane animal care. […] On study days 25-27, onset of arthritis occurred, and mice were randomized into treatment groups (10/treatment group, 4/group for normal). […] Randomization into each group was done after swelling was obviously established in at least one paw, and attempts were made to assure approximately equal mean scores across the groups at the time of enrollment. […] Treatment continued daily (QD at 24 h intervals) through arthritis day 14.

[9] = tested on: semi-established CIA Dba1 mice; test: Semi-established collagen induced arthritis (CIA) model; assay type: in vivo, mouse; conditions: for disease incidence: study day 33
Description: Semi-Established Collagen Induced Arthritis (CIA) Arthritis Model. Experiments were carried out at Bolder Biopath, Boulder, Colo. All experiments were carried out in compliance with regulations of the Institutional Animal Care and Use Committee and were conducted in accordance with principles and procedures dictated by the highest standards of humane animal care. Dba1 mice were injected at the base of the tail with 150 μL of Freund's Complete Adjuvant (Sigma) containing bovine type II collagen (Elastin Products, Owensville, Mo.) (2 mg/ml) on day 0 and again on day 21. Mice were randomized into treatment groups on study day 21, and treatment was initiated. Treatment continued daily (3 mg/kg, 10 mg/kg or 30 mg/kg QD at 24 hour intervals) through day 33, and mice were terminated on day 33 (animals 1-6) or day 34 (animals 7-12). Onset of arthritis occurred between study days 21 and 34. Clinical scores were assessed for each of the paws on study days 21-34 using the following scoring system: 0=normal, 1=one hind or fore paw joint affected or minimal diffuse erythema and swelling, 2=two hind or fore paw joints affected or mild diffuse erythema and swelling, 3=three hind or fore paw joints affected or moderate diffuse erythema and swelling, 4=marked diffuse erythema and swelling or =four digit joints affected, 5=severe diffuse erythema and severe swelling entire paw, unable to flex digits. Spleens and plasma were harvested at necropsy (day 33 for animals 1-6 and day 34 for animals 7-12) and paws were removed and fixed in formalin for histopathological analysis.

[10] = tested on: PGPS 10S-induced arthritis in rats; test: PGPS 10S-induced model of chronic arthritis; assay type: in vivo, rat
Description: PGPS 10S-Induced Model of Chronic Arthritis. Rats were injected intraperitoneal with […] of animal body weight, to induce arthritis. Left and right hind limb lateral ankle widths of each rat were measured three times each prior to PG-PS 10S administration and on day 5. The first inflammatory response peak for both right and left ankles of PG-PS rats was reached on day 4. Rats were assigned to one of five treatment groups. […] Another group was treated with 0.3 mg/kg QD dexamethasone on the 3rd day post first peak (day 7) through day 22.

KC = test: Inflammatory chemokine and cytokine analysis in CIA mice, KC; assay type: in vivo, mouse; conditions: dexamethasone group
From the text: (§3) Inflammatory Chemokine and Cytokine Analysis: At the termination of the CIA study, mice were sacrificed and blood was harvested via cardiac punch using EDTA as an anticoagulant. […] Levels of various mouse cytokines in plasma were quantified using Bioplex® Suspension Array System according to manufacturer's instruction (BioRad, mTNFa (171-G5023M), mIL-6 (171-G5007M), mKC (171-G5018M), mIFNg (171-G5017M), mIL-17 (Z60-00006Z2), mIL-1β (171-G5002M), mMCP-1 (171-G5019M).

IL-6 = test: Inflammatory chemokine and cytokine analysis in CIA mice, IL-6; assay type: in vivo, mouse; conditions: dexamethasone group
From the text: as §3

TNF-a = test: Inflammatory chemokine and cytokine analysis in CIA mice, TNF-a; assay type: in vivo, mouse; conditions: dexamethasone group
Description: Inflammatory Chemokine and Cytokine Analysis: At the termination of the CIA study, mice were sacrificed and blood was harvested via cardiac punch using EDTA as an anticoagulant. Following centrifugation, serum was diluted 1:4 with a mouse serum diluents kit (BioRad cat#171-305004). Levels of various mouse cytokines in plasma were quantified using Bioplex® Suspension Array System according to manufacturer's instruction (BioRad, mTNFa (171-G5023M), mIL-6 (171-G5007M), mKC (171-G5018M), mIFNg (171-G5017M), mIL-17 (Z60-00006Z2), mIL-1β (171-G5002M), mMCP-1 (171-G5019M).

C=CC(=O)Nc1cccc(Nc2nc(Nc3cccc(OCCCNC(=O)CCCC(=O)NCCCOCCOCCOCCCNC(=O)CCCC[C@@H]4SC[C@@H]5NC(=O)N[C@@H]54)c3)ncc2C)c1 [Compound 2]
IC50 (Btk [1]): 0.5 nM
IC50 (EGFR): > 25 nM
IC50 (Syk): > 1000 nM
IC50 (Lyn): > 3500 nM

C=CC(=O)Nc1cccc(Nc2nc(Nc3ccc(OCCOC)cc3)ncc2F)c1 [Compound 1, N-(3-(5-fluoro-2-(4-(2-methoxyethoxyl)phenylamino)pyrimidin-4-ylamino)phenyl)acrylamide]
concentration at which 90% of Btk activity was inhibited (Btk [2]): 35 nM
activation of the downstream kinase Erk (Btk [2]; anti-IgM): potently inhibited
phosphorylation of Btk on Tyr551 (Btk [2]; anti-IgM): no effect
phosphorylation of the Btk substrate PLCγ2 (Btk [2]; anti-IgM): potently inhibited
EC90 (Btk [3]): 39 nM
inhibition at 0.01 µM (Btk [4]): 42%
receptor occupancy at 0.01 µM (Btk [5]): 37%
EC50 (naïve human B-cells): 3 nM
persistence of action on Btk (occupancy) after circulating compound has disappeared (Btk [6]; mice, single oral 50 mg/kg): > 12 h
new Btk protein, % of pre-dose Btk protein levels (Btk [6]; mouse spleen, 24 hours after single oral 50 mg/kg): 43%
new Btk protein, % of pre-dose Btk protein levels (Btk [6]; mouse spleen, 48 hours after single oral 50 mg/kg): 71%
time for Btk protein to recover to 50% pre-dose levels (Btk [6]; mouse spleen, single oral 50 mg/kg): 24 to 48 h
compound concentration in plasma at the 8 hour timepoint [7]: undetectable in 5/6 mice; also recorded: absent in 5 of 6 animals
inhibition of histopathologic signs of disease (six joints) ([8]; 10 mg/kg): 87%
disease incidence ([9]; 3 mg/kg QD): 50%
disease incidence ([9]; 10 mg/kg QD): 17%
disease incidence ([9]; 30 mg/kg QD): 8%
body weight loss associated with severity of disease ([9]; all three dose levels): prevented the loss in body weight
spleen enlargement vs vehicle ([10]; 10 mg/kg QD, 30 mg/kg QD and 30 mg/kg QOD): significantly prevented spleen enlargement
PGPS 10S-induced arthritis ([10]; 3, 10, 30 mg/kg QD, 30 mg/kg QOD): inhibited PGPS 10S-induced arthritis in a dose-dependent manner
right and left lateral ankle width vs diseased group ([10]; PGPS rats, day 7 through day 22): significantly lower

C[C@@H]1C[C@H]2[C@@H]3CCC4=CC(=O)C=C[C@]4(C)[C@@]3(F)[C@@H](O)C[C@]2(C)[C@@]1(O)C(=O)CO [dexamethasone, reference compound]
inhibition of histopathologic signs of disease (six joints) ([8]; dexamethasone positive control (0.2 mg/kg)): 82%
KC mean (KC): 52.9 pg/mL
IL-6 mean (IL-6): 9.8* pg/mL
TNF-a mean (TNF-a): 131.0 pg/mL
disease incidence ([9]; dexamethasone group): 0%
